Laboratory results taken from patent US20250215002A1, “SOLID FORMS OF TYK2 INHIBITORS AND METHODS OF USE” (Takeda Pharmaceutical Company Limited, priority 2022, published 2025).
Entries after “also recorded” stand apart in the source; their conditions may differ.

Tests used:
Type in all cases: physicochemical
[1] = Dynamic vapor sorption (DVS) moisture sorption/desorption; conditions: for Hygroscopicity (description): DVS 5-95% RH
Experimental: Moisture sorption/desorption data were collected on a Surface Measurement System DVS Intrinsic instrument. The samples were not dried prior to analysis. Sorption and desorption data were collected over a range from 5% to 95% RH in 10% RH increments under a nitrogen purge. The equilibrium criteria used for the analyses were 0.001 dm/dt weight change in 5 minutes with a minimum step time of 30 minutes and maximum equilibration time of 180 minutes with a 3-minute data logging interval. Data were not corrected for the initial moisture content of the samples.

[2] = Relative humidity stressing (~90% RH), solid form by XRPD; conditions: RT
From the text: Select materials were transferred to a vial, which was then uncapped and placed inside ajar containing a saturated aqueous barium chloride solution for ˜90% RH in the headspace (See, Nyqvist, H. E., Saturated Salt Solutions for Maintaining Specified Relative Humidities, Int. J. Pharm. Technol. Prod. Manuf 1983, 4, 47-48, which is incorporated by reference in its entirety). Jars were stored at the stated temperatures.
XRPD patterns were collected with a PANalytical X'Pert PRO MPD or a PANalytical Empyrean diffractometer using an incident beam of Cu radiation produced using a long, fine-focus source. An elliptically graded multilayer mirror was used to focus Cu Kα X-rays through the specimen and onto the detector. Prior to the analysis, a silicon specimen (NIST SRM 640e) was analyzed to verify the observed position of the Si 111 peak is consistent with the NIST-certified position. A specimen of the sample was sandwiched between 3-μm-thick films and analyzed in transmission geometry. A beam-stop, short antiscatter extension, and antiscatter knife edge were used to minimize the background generated by air. Soller slits for the incident and diffracted beams were used to minimize broadening and asymmetry from axial divergence. Diffraction patterns were collected using a scanning position-sensitive detector (X'Celerator) located 240 mm from the specimen and Data Collector software v. […]

[3] = Stable form screen slurries, resulting solid form by XRPD
From the text: Early in the study, slurries were set up for the stable form screen at RT (Table 5, infra). In these experiments, solids of the as-received mixture of Form A+minor Material B were combined with given solvent systems at a solid loading that allowed for undissolved solids to remain, and the mixtures were stirred at ambient conditions. […] Two slurries were selected for isolation at that time to confirm the solid form and chemical composition, while the remaining slurries were covered with foil as a precaution. The slurry in THF, which was observed as a green suspension (darker than many of the other slurries), caused conversion to a new crystalline form, designated as Form C.
Additional slurries were set up at elevated temperatures (˜60° C. and ˜80° C.) and sub-ambient temperatures (2 to 8° C.) as well. […]
XRPD patterns were collected with a PANalytical X'Pert PRO MPD or a PANalytical Empyrean diffractometer using an incident beam of Cu radiation produced using a long, fine-focus source. […] Prior to the analysis, a silicon specimen (NIST SRM 640e) was analyzed to verify the observed position of the Si 111 peak is consistent with the NIST-certified position. A specimen of the sample was sandwiched between 3-μm-thick films and analyzed in transmission geometry. […]

[4] = Heating/desolvation experiments (TGA), recovered solids by XRPD
Experimental: TG analysis was performed using a Mettler-Toledo TGA/DSC3+ analyzer. Temperature calibration was performed using calcium oxalate, indium, tin, and zinc. The sample was placed in an aluminum pan. The pan was hermetically sealed, the lid pierced, then inserted into the TG furnace. A weighed aluminum pan configured as the sample pan was placed on the reference platform. The furnace was heated under nitrogen. Samples were analyzed from 25° C. to 350° C. at 10° C./min. The TGA/DSC3+ instrument was also used for select heating/desolvation experiments, in which solids were heated as described to a given temperature, then recovered and analyzed by XRPD.

[5] = Slurries of Form C at high water activity, resulting form by XRPD; conditions: 1 d
Experimental: In addition to the slurries starting with Form A, two slurries of Form C were set up at high water activity conditions to study possible conversion to a hydrate (Table 9, supra). THF/water 50:50 (aw ˜1) and neat water (aw 1) were used.
Suspensions were prepared by adding enough solids to a given solvent at the stated conditions so that undissolved solids were present. The mixture was then agitated (typically by stirring or oscillation) in a sealed vial at a given temperature for an extended period of time. The solids were isolated as described above.

| SMILES | Hygroscopicity (description) [1] | DVS weight gain 5-95% RH ([1]; sorption 5-95% RH) | XRPD Result after RH stress ([2]; 6 d) | Critical water activity (aw) between Form A and Form C ([3]; RT, hydrate Form A versus anhydrous Form C) | XRPD Result after heating ([4]; heat to 150° C. (TGA)) | DVS weight change at 5% RH ([1]; 5% RH) | post-DVS XRPD (solid form after DVS) ([1]; after sorption/desorption cycle 5-95-5% RH) | DVS weight loss 95-5% RH ([1]; desorption 95-5% RH) | DVS weight gain 5-95% RH, equivalent moles of water ([1]; sorption 5-95% RH) | XRPD Result after RH stress ([2]; 11 d) | Thermodynamic stability of the form (description) ([3]; between 2° C. and 80° C.) | XRPD Result after slurry ([5]; slurry in THF/water 50:50 (aw ~1)) | XRPD Result after slurry ([5]; slurry in water (aw 1)) | XRPD Result after heating ([4]; heat to 270° C., cool to 40° C., heat to 200° C. (TGA)) |
| --- | --- | --- | --- | --- | --- | --- | --- | --- | --- | --- | --- | --- | --- | --- |
| CNc1cc(Nc2cccn(-c3ccccn3)c2=O)nc2c(C(=O)N[C@@H]3CC[C@H]3OC)cnn12 [Form A] | significant hygroscopicity | 4.58% | still consisting of Form A | 0.69-0.82 | Full conversion to Form C; also recorded: converted to Form C upon |  |  |  |  |  |  |  |  |  |
| CNc1cc(Nc2cccn(-c3ccccn3)c2=O)nc2c(C(=O)N[C@@H]3CC[C@H]3OC)cnn12 [Form C] | limited hygroscopicity | 1.75% |  |  |  | 0.00% weight change at 5% RH | consistent with Form C | 1.80% weight loss 95-5% RH | ~0.5 mol | consistent with Form C; also recorded: did not readily convert to a hydrate | likely thermodynamically stable anhydrous/non-solvated form | Full conversion to Form A | no form conversion | Material D |
